From US20190048052A1, “ANTI-MICROBIAL PEPTIDES AND COATINGS” (Board of Regents of the University of Nebraska, priority 2016, published 2019)
Residues, ends and D or L forms follow the SMILES beside them.

Columns and labels:
[1] = target: T1, S. aureus V8 protease (Staphylococcus aureus, UniProt P0C1U8); type: in vitro ADME; details: peptide:protease 40:1, 24 hours, 37° C.
T1 construct: purchased Sigma or Fisher
Description: When degraded, no peptide band could be detected on a 5% stacking/18% resolving tricine gel after 2-4 hours incubation at 37° C. Briefly, a solution (100 μL) containing 250 μM peptide and 6.25 μM protease (Sigma or Fisher) in 10 mM PBS buffer (pH 8) was incubated at 37° C. (peptide/protease molar ratio, 40:1). Aliquots (10 μL) of the reaction solutions were taken at 0, 6, and 24 hours and immediately mixed with 10 μL of 2× SDS loading buffer followed by boiling for 5 minutes to stop the reaction. […] After electrophoresis, the gel was stained by Brilliant Blue R-250 (Fisher) and destained to view the peptide bands.

[2] = tested on: S. aureus USA300; assay: Live cell penetration experiment (FITC, confocal); type: cell-based, Staphylococcus aureus; details: peptide and FITC 12.5 μM
Description: The entrance of a fluorescent dye into live bacterial cells was followed by confocal microscopy (Mishra et al. (2015) RSC Advances 5:59758-59769). In short, S. aureus USA300 was grown to the exponential phase from the overnight culture. The cells were then washed twice with fresh 1×PBS (pH 7.2) and the final cell density was adjusted to 1×10^8 CFU/mL. 1500 μL of the culture was added to the chambers of cuvettes (borosilicate cover glass systems) with equimolar concentrations of TetraF2W-RK and fluorescein isothiocyanate FITC (12.5 μM). The samples were examined with a confocal laser scanning microscope (Zeiss 710) with a series of live time pictures taken at every 5 seconds for 5 minutes and the data were processed using Zen 2010 software.

[3] = tested on: S. aureus USA300; assay: Confocal microscopy of preformed biofilms, LIVE/DEAD staining; type: cell-based, Staphylococcus aureus; details: 25 μM
Description: S. aureus USA300 (10^5 CFU/mL) was made from exponentially growing bacteria. 1800 μL was added to the chamber of cuvettes (borosilicate cover glass systems), and was incubated for 37° C., 24 hours for biofilm formation. Media was then pipetted out and chambers were washed with 1×PBS to remove non-adhered cells. To disrupt the preformed biofilms, 200 μL of 10× stocks of the peptide was added followed by 1800 μL of TSB. Control cuvettes contained water instead of peptide. The cuvettes were again incubated for another 24 hours at 37° C. Subsequently, the supernatant was pipetted out and the chambers were washed with 1×PBS. For evaluation under confocal microscope the biofilms were stained with […] of LIVE/DEAD® kit (Invitrogen Molecular Probes) according to the manufacturer's instructions. The samples were examined with a confocal laser scanning microscope (Zeiss 710) and the data processed using Zen 2010 software.

[4] = tested on: S. aureus USA300; type: cell-based, Staphylococcus aureus; details: USA300, 20 h
Description: (§1) The antimicrobial activity of peptides was evaluated using a standard broth microdilution protocol. In brief, exponential phase bacteria at 10^6 CFU were incubated with serially diluted peptides overnight for ˜20 hours at 37° C. The plates were read on a ChroMate® 4300 Microplate Reader at 630 nm (GMI, Ramsey, Minn.).

[5] = tested on: S. aureus USA300; assay: Inhibition of bacterial attachment (XTT); type: cell-based, Staphylococcus aureus; details: 25 μM
Description: (§2) Three types of experiments were conducted to evaluate the anti-biofilm activity of these peptides against S. aureus USA300, which was grown in tryptic soy broth (TSB) media in flat bottom, 96-well, polystyrene microtiter plates (Mishra et al. (2015) RSC Advances 5:59758-59769; Dean et al. (2011) BMC Microbiol., 11:114).
The first experiment measures the ability of the peptide to inhibit bacterial attachment, the initial step for biofilm formation. In short, overnight cultures of S. aureus USA300 were grown in TSB media to an optical density (600 nm) of ˜1.0. 180 μL of this culture was added to each well of the microtiter plates containing 20 μL of 10× peptide solution. The plates are then incubated at 37° C. for 1 hour. Media with bacteria were then pipetted out and chambers were washed with 1×PBS to remove non-adherent cells. The inhibition of biofilms was estimated by XTT [2,3-bis(2-methyloxy-4-nitro-5-sulfophenyl)-2H-tertazolium-5-carboxanilide] assay by following the manufacturer's instructions with modifications. 180 μL of fresh TSB and 20 μL of XTT solution was added to each well and the plates were again incubated for 2 hours at 37° C. Absorbance at 450 nm (only media with XTT containing wells served as the blank) was obtained using a Chromate® microtiter plate reader. […]

[6] = tested on: S. aureus USA300; assay: Preformed biofilm disruption (XTT); type: cell-based, Staphylococcus aureus; details: 25 μM, 24 hour preformed biofilms
Description: as §2
The third experiment evaluates the ability of the peptide to disrupt the biofilms of S. aureus USA300 formed in 24 hours. S. aureus USA300 (10^5 CFU/mL) in fresh TSB media was made from an exponentially growing culture. 200 μL of this bacterial culture was added to each well of the microtiter plates. The plates are then incubated at 37° C. for 24 hours to allow biofilm formation. Media was then carefully removed followed by washing with sterile 1×PBS to remove any unattached bacteria. Solution containing 20 μL of 10× peptide solution and 180 μL of fresh TSB were added. The plates were again incubated at 37° C. for another 24 hours. The extent of peptide disruption of biofilms was quantified using the same XTT method described above.

[7] = tested on: S. aureus USA300; assay: Propidium iodide membrane permeation; type: cell-based, Staphylococcus aureus
Description: Fluorescence spectroscopy was also used to follow bacterial killing. In brief, a serially diluted 10× peptide (10 μL) was made in 96-well coming COSTAR microtiter plates. Propidium iodide (2 μL) was added at 50 μM to each well which was finally incubated with S. aureus USA300 bacteria (88 μL at a final OD600 ˜0.1) with continuous shaking at 100 rpm, 37° C. in a FLUOstar® Omega (BMG LABTECH Inc, NC) microplate reader. The plates were read every 5 minutes for a total duration of 2 hours with excitation and emission wavelengths at 584 nm and 620 nm respectively. Plots were made using averaged readings from duplicated experiments after subtraction of the media control.

[8] = tested on: S. aureus USA300; assay: Inhibition of biofilm growth (XTT); type: cell-based, Staphylococcus aureus; set-up: unit of the concentration uncertain
Description: as §2
The second experiment evaluates the ability of the peptide to inhibit biofilm formation of S. aureus USA300 in 24 hours. In brief, S. aureus USA300 (10^5 CFU/mL) was made in fresh TSB media from exponentially growing bacteria. 180 μL of this bacterial culture was added to each well of the microtiter plates containing 20 μL of 10× peptide solution.

[9] = tested on: E. coli ATCC 25922; type: cell-based, Escherichia coli; details: ATCC 25922, 20 h
Description: as §1

T1 sequence (P0C1U8 69-336): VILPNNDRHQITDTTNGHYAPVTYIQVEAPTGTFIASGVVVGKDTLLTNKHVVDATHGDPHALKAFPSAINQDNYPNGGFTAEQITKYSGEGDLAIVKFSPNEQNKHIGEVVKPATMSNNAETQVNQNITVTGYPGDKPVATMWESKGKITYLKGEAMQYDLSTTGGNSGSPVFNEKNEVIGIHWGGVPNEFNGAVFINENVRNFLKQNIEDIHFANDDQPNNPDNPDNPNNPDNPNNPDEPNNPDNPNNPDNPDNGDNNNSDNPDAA

| SMILES | stability to S. aureus V8 protease [1] | time to entry of FITC into bacteria after peptide treatment [2] [s] | killing in 24 hour preformed biofilms (LIVE/DEAD confocal) [3] | S. aureus (MIC) [4] [µM] | reduction of adherence of bacterial cells [5] [%] | disruption of preformed biofilms [6] [%] | propidium iodide fluorescence change after treatment [7] | inhibition of biofilm growth ([8]; 6.25 (unit uncertain) as printed) | inhibition of biofilm formation ([8]; 25 (unit uncertain) as printed) | E. coli (MIC) [9] [µM] |
| --- | --- | --- | --- | --- | --- | --- | --- | --- | --- | --- |
| CC[C@H](C)[C@H](NC(=O)[C@H](CCCCN)NC(=O)[C@H](CCCNC(=N)N)NC(=O)[C@H](CC(C)C)NC(=O)[C@H](Cc1c[nH]c2ccccc12)NC(=O)[C@H](Cc1c[nH]c2ccccc12)NC(=O)[C@@H](N)Cc1c[nH]c2ccccc12)C(=O)N[C@@H](Cc1c[nH]c2ccccc12)C(N)=O [TetraF2W-RK, WWWLRKIW] (H-WWWLRKIW-NH2; N-terminus assumed) | not cut | 30 | – | – | – | – | – | – | – | – |
| CC[C@H](C)[C@H](NC(=O)[C@H](CCCNC(=N)N)NC(=O)[C@H](CCCNC(=N)N)NC(=O)[C@H](CC(C)C)NC(=O)[C@H](Cc1c[nH]c2ccccc12)NC(=O)[C@H](Cc1c[nH]c2ccccc12)NC(=O)[C@@H](N)Cc1c[nH]c2ccccc12)C(=O)N[C@@H](Cc1c[nH]c2ccccc12)C(N)=O [TetraF2W-RR, WWWLRRIW] (H-WWWLRRIW-NH2; N-terminus assumed) | – | – | capable of killing S. aureus USA300 in 24 hour biofilms | 3.1 | 83 | ~77 | most effective in damaging the membranes | actively inhibited biofilm growth | completely inhibited | 6.2 |
